Source: US6060043A, “Deodorant composition containing D-amino acid” (The Gillette Company, priority 1998, dated 2000)
In brackets after ≈: the same amount, converted by molar mass.

How the values were obtained:
Coryneform bacteria = assay: Minimum inhibitory concentration (MIC) in axillary bacteria, Coryneform strain; type: cell-based, Coryneform strains of axillary bacteria
Experimental: (§1) In vitro experiments were conducted in order to determine the ability of several bacterial cell wall synthesis inhibitors to inhibit the growth of axillary bacteria. The minimum inhibitory concentrations (MIC) of β-chloro-D-alanine (BCA), and D-cycloserine were determined in Staphylococcus (Staphylococcus haemolyticus) and Coryneform strains of axillary bacteria as follows: Frozen stock cultures were thawed out and 50 μl of Staphylococcus haemolyticus or 100 μl of Coryneform bacteria were inoculated into 5.0 ml of nutrient media. Bacteria were incubated at 35° C. overnight to produce cultures in log phase growth. A series of tubes was set up into which serial dilutions of BCA or triclosan in nutrient media were added in the range of 0.1 to 0.0001 wt/v % (where 1 g/100 ml=1 wt/v %). The tubes were inoculated with 50 μl of log phase Staphylococcus haemolyticus or Coryneform cultures and incubated at 35° C. overnight. […] The minimum bactericidal concentration (MBC) was determined by adding 50 μl from each clear solution of the MIC experiment into 5.0 ml of fresh nutrient media and incubating overnight at 37° C. […] The MIC of BCA was thus determined to be 0.1 wt/v % and 0.001 wt/v % in Staphylococcus haemolyticus and Coryneforms, respectively. The MIC of D-cycloserine was thus determined to be 0.01 wt/v % and 0.005 wt/v % in Staphylococcus haemolyticus and Coryneforms, respectively. By comparison, the MIC of the common antibacterial deodorant compound triclosan is 0.01 wt/v % and 0.1 wt/v % in Staphylococcus haemolyticus and Coryneforms, respectively.

[1] = tested on: Staphylococcus haemolyticus; assay: Minimum inhibitory concentration (MIC) in axillary bacteria, Staphylococcus strain; type: cell-based
Experimental: as §1

β-lyase = assay: Sniff vial test: malodor formation from precursors by whole Staphylococcus haemolyticus cells (beta-lyase inhibition); type: cell-based; settings: 31-0.625 mM, phosphate buffer pH 6.8, 30 minutes at 35° C.; judged by smelling
Experimental: BCA was tested for its ability to prevent Staphylococcus haemolyticus from metabolizing sweat to form malodor. Log-phase cultures of Staphylococcus haemolyticus were incubated with various concentrations of BCA (31-0.625 mM) in phosphate buffer (pH 6.8) for 30 minutes at 35° C. The cell/BCA mixture was then added to a "sniff vial" containing malodor precursors and incubated at 35° C. for an additional 30 minutes. Malodor compounds were then extracted from the mixture with chloroform and malodor was judged by spotting 10 μl of chloroform extracts onto bibulous paper and smelling. […] In contrast, the β-lyase inhibitor aminooxyacetic acid (AOA) consistently prevents malodor in the above assay at concentrations of 5.0 mM.

axillary malodor [2] = assay: Example 4: axillary malodor evaluation by trained odor judges, 1.0% BCA vs vehicle; type: in vivo, human; settings: for 24 hours drop from untreated Control / Malodor Evaluation (score): 1.0% BCA; for Malodor Evaluation (score): 24 h after application, scale 0 to 10
Experimental: (§2) BCA was dissolved in a mixture of 60% propylene glycol and 40% water at a final concentration of 1.0%. The pH of the solution was adjusted to about 6.25 with 10 N NaOH. Thirty-nine female panelists applied 0.5 ml of this test solution to either the right or left axilla and 0.5 ml of a comparative solution of 60% propylene glycol and 40% water to the other. The side of application of the test or comparative solutions was assigned in a random fashion. Twenty-four hours after application, each side of the panelists' axilla was judged for odor by a panel of trained odor judges on a scale of 0 (no odor) to 10 (very intense, disagreeable odor). This procedure was performed on four consecutive days. […] Analysis of the clinical results is summarized below:
Significance was measured in a two-tailed T-test al 95% confidence level and n=number of subjects.

[3] = In vivo test for axillary irritation of 1.0% BCA; design: species or system human; settings: 1.0% in 60% propylene glycol/40% water, pH about 6.25, 1.0 ml, four consecutive days, seven panelists
Experimental: In vivo experiments were conducted to determine if 1.0% solutions of BCA were irritating to axillary skin. BCA was dissolved in a mixture of 60% propylene glycol and 40% water at a final concentration of 1.0%. The pH of the solution was adjusted to about 6.25 with 10 N NaOH. Seven panelists applied 1.0 ml of this test solution to a cotton applicator swab and applied the solution to either the right or left axilla. 1.0 ml of a control solution of 60% propylene glycol and 40% water was similarly applied to the other axilla. The side of application of the test or control solutions was assigned in a random fashion. This procedure was performed on four consecutive days. Axilla were monitored by a nurse for signs of skin irritation.

axillary malodor [4] = assay: Example 6: axillary malodor evaluation by odor judges, 1.0% β-chloro-D-alanine vs 1.0% β-chloro-L-alanine; type: in vivo, human; design: key to 24 Hour Drop from Control / A-B (drop), D-BCA minus L-BCA: drop in odor score on 0 (no odor) to 10 (very intense) scale; settings: for 24 Hour Drop from Control: 1.0% in 60% propylene glycol/40% water
Experimental: as §2
A test product containing 1.0% β-chloro-D-alanine (BCA)[…] in 60% propylene glycol/40% water was compared to a comparative product containing 1.0% β-chloro-L-alanine in 60% propylene glycol/40% water by application to 50 female test subjects according to the procedure of Example 4.

SMILES: N[C@H](CCl)C(=O)O [BCA, β-chloro-D-alanine]
- MIC (Coryneform bacteria): 10 µg/mL (≈ 0.0809 mM)
- MIC [1]: 1000 µg/mL (≈ 8.09 mM)
- Inhibition of malodor formed by staphylococcal metabolism of precursors (β-lyase): did not inhibit malodor
- Axillary skin irritation (axillary malodor [2]; 1.0% in 60% propylene glycol/40% water, 0.5 ml, four consecutive days, thirty-nine female panelists): No incidences of irritation were reported
- Deodorant efficacy versus 60% propylene glycol/40% water comparative product (axillary malodor [2]; 95% confidence level, measurements 3, 4 and composite): significantly more effective
- A-B (drop of comparative product minus drop of BCA product) (axillary malodor [2]; composite): -0.29
- 24 hours drop from untreated Control (axillary malodor [2]; composite): 0.96
- Malodor Evaluation (score) (axillary malodor [2]; measurement 1): 4.18
- Malodor Evaluation (score) (axillary malodor [2]; measurement 2): 3.6
- Malodor Evaluation (score) (axillary malodor [2]; measurement 3): 3.3
- Malodor Evaluation (score) (axillary malodor [2]; measurement 4): 3.49
- A-B (drop of comparative product minus drop of BCA product) (axillary malodor [2]; post-application measurement 1): 0.11
- 24 hours drop from untreated Control (axillary malodor [2]; post-application measurement 1): 0.41
- A-B (drop of comparative product minus drop of BCA product) (axillary malodor [2]; post-application measurement 2): -0.21
- 24 hours drop from untreated Control (axillary malodor [2]; post-application measurement 2): 0.99
- A-B (drop of comparative product minus drop of BCA product) (axillary malodor [2]; post-application measurement 3): -0.50
- 24 hours drop from untreated Control (axillary malodor [2]; post-application measurement 3): 1.29
- A-B (drop of comparative product minus drop of BCA product) (axillary malodor [2]; post-application measurement 4): -0.62
- 24 hours drop from untreated Control (axillary malodor [2]; post-application measurement 4): 1.10
- Axillary skin irritation [3]: No incidences of irritation were reported
- A-B (drop), D-BCA minus L-BCA (axillary malodor [4]; composite): 0.436
- 24 Hour Drop from Control (axillary malodor [4]; composite): 1.519
- Control of malodor, BCA test product versus 1.0% β-chloro-L-alanine comparative product (axillary malodor [4]; measurements 2-4 and composite, 95% level of confidence, not the first measurement): significantly more effective
- A-B (drop), D-BCA minus L-BCA (axillary malodor [4]; post-application measurement 1): 0.166
- 24 Hour Drop from Control (axillary malodor [4]; post-application measurement 1): 1.079
- A-B (drop), D-BCA minus L-BCA (axillary malodor [4]; post-application measurement 2): 0.452
- 24 Hour Drop from Control (axillary malodor [4]; post-application measurement 2): 1.492
- A-B (drop), D-BCA minus L-BCA (axillary malodor [4]; post-application measurement 3): 0.665
- 24 Hour Drop from Control (axillary malodor [4]; post-application measurement 3): 1.678
- A-B (drop), D-BCA minus L-BCA (axillary malodor [4]; post-application measurement 4): 0.529
- 24 Hour Drop from Control (axillary malodor [4]; post-application measurement 4): 1.862
